In patent US11401246B2, “Triazole glycolate oxidase inhibitors” (CANTERO THERAPEUTICS, INC., priority 2018, dated 2022):

target: T1, human glycolate oxidase (hGO) (Homo sapiens, UniProt Q9UJM8); test: In vitro inhibition of human glycolate oxidase (enzymatic assay, HRP-coupled Trinder reaction); type: biochemical; conditions: recombinant hGO, 40 mM glycolic acid, pH 7, read at 515 nm, 1 minute after initiation of Trinder reaction; read-out: % Inhibition;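 note: values are IC50 potency bins despite the % Inhibition label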
T1 construct: His-tag (6 histidines, pET-15b) (N); made in house; host or cells: E. coli BL21 (DE3)
T1 sequence (Q9UJM8 1-370): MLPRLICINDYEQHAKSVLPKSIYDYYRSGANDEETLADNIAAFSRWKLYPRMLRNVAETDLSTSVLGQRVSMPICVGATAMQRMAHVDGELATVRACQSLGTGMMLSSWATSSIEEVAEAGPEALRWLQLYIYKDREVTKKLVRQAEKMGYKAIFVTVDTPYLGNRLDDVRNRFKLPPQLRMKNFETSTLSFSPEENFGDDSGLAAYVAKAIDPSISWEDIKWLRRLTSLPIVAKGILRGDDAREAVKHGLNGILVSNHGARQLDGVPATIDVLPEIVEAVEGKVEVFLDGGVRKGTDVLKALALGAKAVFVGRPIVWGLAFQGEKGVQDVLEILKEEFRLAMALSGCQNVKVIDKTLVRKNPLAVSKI
Method in brief: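 Glyoxylate production measured indirectly: H2O2 from hGO oxidation of 40 mM glycolic acid (pH 7 phosphate, 0.1 mM EDTA) drives HRP-coupled quinoneimine dye formation, read spectrophotometrically at 1 minute. Enzyme is His-tagged human Hao1 expressed in BL21 E. coli and nickel-affinity purified.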

First: Cc1ccc(-c2ccc(Oc3[nH]nnc3C(=O)O)cc2)cn1 [Example 84, 5-(4-(6-methylpyridin-3-yl)phenoxy)-1H-1,2,3-triazole-4-carboxylic Acid]
Second: Cc1cc(-c2ccc(Oc3[nH]nnc3C(=O)O)cc2)ccn1 [Example 81, 5-(4-(2-methylpyridin-4-yl)phenoxy)-1H-1,2,3-triazole-4-carboxylic Acid]
The IC50 of the first is higher: 100 to 200 nM for the first, < 100 nM for the second. The second is the more potent here.

Going from `Cc1ccc(Oc2[nH]nnc2C(=O)O)cn1` [Example 54, 5-((6-methylpyridin-3-yl)oxy)-1H-1,2,3-triazole-4-carboxylic Acid] to `COc1cc(Oc2[nH]nnc2C(=O)O)ccc1Br` [Example 89, 5-(4-bromo-3-methoxyphenoxy)-1H-1,2,3-triazole-4-carboxylic Acid], the IC50 falls from > 200 nM to < 100 nM. The second is the more potent here.

First: O=C(O)c1nn[nH]c1Oc1ccc(-c2ncco2)cc1 [Example 26, 5-(4-(oxazol-2-yl)phenoxy)-1H-1,2,3-triazole-4-carboxylic Acid]
Second: O=C(O)c1nn[nH]c1Oc1ccc(-c2cnccn2)cc1 [Example 37, 5-(4-(pyrazin-2-yl)phenoxy)-1H-1,2,3-triazole-4-carboxylic Acid]
The IC50 of the first is higher: 100 to 200 nM for the first, < 100 nM for the second. The second is the more potent here.

First: O=C(O)c1nn[nH]c1Oc1ccc(-c2cccc(C(F)(F)F)c2)cc1 [Example 112, 5-((3′-(trifluoromethyl)-[1,1′-biphenyl]-4-yl)oxy)-1H-1,2,3-triazole-4-carboxylic Acid]
Second: CC(C)c1cccc(-c2ccc(Oc3[nH]nnc3C(=O)O)cc2)c1 [Example 109, 5-((3′-isopropyl-[1,1′-biphenyl]-4-yl)oxy)-1H-1,2,3-triazole-4-carboxylic Acid]
The IC50 of the first is lower: 100 to 200 nM for the first, > 200 nM for the second. The first is the more potent here.

`O=C(O)c1nn[nH]c1Oc1ccc(-c2cccnc2F)cc1` [Example 18, 5-(4-(2-fluoropyridin-3-yl)phenoxy)-1H-1,2,3-triazole-4-carboxylic Acid] and `Cc1ccc(-c2ccc(Oc3[nH]nnc3C(=O)O)cc2)c(F)n1` [Example 79, 5-(4-(2-fluoro-6-methylpyridin-3-yl)phenoxy)-1H-1,2,3-triazole-4-carboxylic Acid] cannot be ordered by IC50: < 100 nM for the first, < 100 nM for the second.

First: N#Cc1ccc(-c2ccc(Oc3[nH]nnc3C(=O)O)cn2)cc1 [Example 55, 5-((6-(4-cyanophenyl)pyridin-3-yl)oxy)-1H-1,2,3-triazole-4-carboxylic Acid]
Second: O=C(O)c1nn[nH]c1Oc1ccc(-c2cccc(OC(F)F)c2)nc1 [Example 44, 5-((6-(3-(difluoromethoxy)phenyl)pyridin-3-yl)oxy)-1H-1,2,3-triazole-4-carboxylic Acid]
The IC50 of the first is lower: < 100 nM for the first, 100 to 200 nM for the second. The first is the more potent here.

`Cc1cc(F)nc(-c2ccc(Oc3[nH]nnc3C(=O)O)cc2)c1` [Example 74, 5-(4-(6-fluoro-4-methylpyridin-2-yl)phenoxy)-1H-1,2,3-triazole-4-carboxylic Acid] and `O=C(O)c1nn[nH]c1Oc1ccc(-c2cc(F)cnc2Cl)cc1` [Example 99, 5-(4-(2-chloro-5-fluoropyridin-3-yl)phenoxy)-1H-1,2,3-triazole-4-carboxylic Acid] cannot be ordered by IC50: < 100 nM for the first, < 100 nM for the second.

First: O=C(O)c1nn[nH]c1Oc1ccc(-c2cc(F)c(F)c(F)c2)cc1 [Example 110, 5-((3′,4′,5′-trifluoro-[1,1′-biphenyl]-4-yl)oxy)-1H-1,2,3-triazole-4-carboxylic Acid]
Second: O=C(O)c1nn[nH]c1Oc1ccc(-c2ccncc2)cc1 [Example 19, 5-(4-(pyridin-4-yl)phenoxy)-1H-1,2,3-triazole-4-carboxylic Acid]
The IC50 of the first is higher: 100 to 200 nM for the first, < 100 nM for the second. The second is the more potent here.

Compared with `CC(C)(C)c1ccc(Oc2[nH]nnc2C(=O)O)cc1` [Example 68, 5-(4-(tert-butyl)phenoxy)-1H-1,2,3-triazole-4-carboxylic Acid], `CC(C)(C)c1ccc(-c2ccc(Oc3[nH]nnc3C(=O)O)cc2)cc1` [Example 35, 5-((4′-(tert-butyl)-[1,1′-biphenyl]-4-yl)oxy)-1H-1,2,3-triazole-4-carboxylic Acid] is lower in IC50: > 200 nM for the first, 100 to 200 nM for the second.

Compared with `O=C1CCC(c2ccc(Oc3[nH]nnc3C(=O)O)cc2)CC1` [Example 77, 5-(4-(4-oxocyclohexyl)phenoxy)-1H-1,2,3-triazole-4-carboxylic Acid], `O=C(O)c1nn[nH]c1Oc1ccc(C2CC2(F)F)cc1` (stereo not shown) [Example 130, 5-(4-(2,2-difluorocyclopropyl)phenoxy)-1H-1,2,3-triazole-4-carboxylic Acid] is higher in IC50: 100 to 200 nM for the first, > 200 nM for the second.

First: O=C(O)c1nn[nH]c1Oc1ccc(-c2ccc3nccn3c2)cc1 [Example 27, 5-(4-(imidazo[1,2-a]pyridin-6-yl)phenoxy)-1H-1,2,3-triazole-4-carboxylic Acid]
Second: CS(=O)(=O)Nc1ccc(-c2ccc(Oc3[nH]nnc3C(=O)O)cc2)cc1 [Example 102, 5-((4′-(methylsulfonamido)-[1,1′-biphenyl]-4-yl)oxy)-1H-1,2,3-triazole-4-carboxylic Acid]
The IC50 of the first is higher: 100 to 200 nM for the first, < 100 nM for the second. The second is the more potent here.

Compared with `O=C(O)c1nn[nH]c1Oc1ccc(-n2cccn2)cc1` [Example 4, 5-(4-(1H-pyrazol-1-yl)phenoxy)-1H-1,2,3-triazole-4-carboxylic Acid], `CC(=O)N1CCN(c2ccc(Oc3[nH]nnc3C(=O)O)cc2)CC1` [Example 3, 5-(4-(4-acetylpiperazin-1-yl)phenoxy)-1H-1,2,3-triazole-4-carboxylic Acid] is higher in IC50: < 100 nM for the first, > 200 nM for the second.

`N#Cc1ccc(-c2ccc(Oc3nn[nH]c3C(=O)O)cc2)cc1` [Example 29, 5-((4′-cyano-[1,1′-biphenyl]-4-yl)oxy)-1H-1,2,3-triazole-4-carboxylic Acid] and `O=C(O)c1nn[nH]c1Oc1ccc(-c2ccc(C3CC(F)(F)C3)cc2)cc1` [Example 127, 5-((4′-(3,3-difluorocyclobutyl)-[1,1′-biphenyl]-4-yl)oxy)-1H-1,2,3-triazole-4-carboxylic Acid] fall in the same range of IC50: 100 to 200 nM for the first, 100 to 200 nM for the second.

Going from `O=C(O)c1nn[nH]c1Oc1ccc(Br)c(C(F)(F)F)c1` [Example 95, 5-(4-bromo-3-(trifluoromethyl)phenoxy)-1H-1,2,3-triazole-4-carboxylic Acid] to `COc1ccc(-c2ccc(Oc3[nH]nnc3C(=O)O)cc2OC)cn1` [Example 90, 5-(3-methoxy-4-(6-methoxypyridin-3-yl)phenoxy)-1H-1,2,3-triazole-4-carboxylic Acid], the IC50 falls from > 200 nM to < 100 nM.
